Numbers after ± are expanded uncertainties.
Experiment: activity coefficient (dimensionless); of the first substance listed, at infinite dilution; xn = mol fraction of the nth substance listed
Settings: 101 kPa, Liquid, Chromatography, x1 = 0

Row | activity coefficient (308.15 K) | activity coefficient (318.15 K) | activity coefficient (328.15 K) | activity coefficient (338.15 K) | activity coefficient (348.15 K) | activity coefficient (358.15 K) | activity coefficient (368.15 K) | SMILES
1 | 6.31 ± 0.43 | 6.43 ± 0.44 | 6.52 ± 0.44 | 6.64 ± 0.45 | 6.71 ± 0.46 | 6.8 ± 0.46 | 6.87 ± 0.47 | C#CCCCCCC [1-octyne] + CCCCCC[n+]1ccc2ccccc2c1.N#C[S-]
2 | 105 ± 7 | 96.7 ± 6.6 | 90.4 ± 6.2 | 84.1 ± 5.8 | 78.4 ± 5.4 | 73.4 ± 5 | 68.1 ± 4.7 | CCCCCCCCCC [decane] + CCCCCC[n+]1ccc2ccccc2c1.N#C[S-]
3 |  |  | 1.02 ± 0.06 | 1.01 ± 0.06 | 1 ± 0.06 | 0.994 ± 0.062 | 0.982 ± 0.062 | CC#N [acetonitrile] + CCCCCC[n+]1ccc2ccccc2c1.N#C[S-]
4 |  |  | 0.381 ± 0.033 | 0.378 ± 0.033 | 0.375 ± 0.033 | 0.376 ± 0.033 | 0.37 ± 0.033 | CO [methanol] + CCCCCC[n+]1ccc2ccccc2c1.N#C[S-]
5 |  |  | 0.846 ± 0.054 | 0.829 ± 0.053 | 0.812 ± 0.053 | 0.802 ± 0.052 | 0.788 ± 0.051 | CCCCO [butan-1-ol] + CCCCCC[n+]1ccc2ccccc2c1.N#C[S-]
6 | 23.5 ± 1.6 | 22 ± 1.5 | 20.9 ± 1.4 | 19.5 ± 1.3 | 18.7 ± 1.3 | 17.7 ± 1.2 | 16.9 ± 1.2 | C=CCCCCC [1-heptene] + CCCCCC[n+]1ccc2ccccc2c1.N#C[S-]
7 | 46.6 ± 3.2 | 40.5 ± 2.8 | 35.6 ± 2.4 | 31.6 ± 2.2 | 28.3 ± 1.9 | 25.4 ± 1.7 | 23.1 ± 1.6 | CCCCCC [hexane] + CCCCCC[n+]1ccc2ccccc2c1.N#C[S-]
8 | 20.2 ± 1.4 | 18.2 ± 1.2 | 16.9 ± 1.2 | 15.4 ± 1.1 | 14.4 ± 1 | 13.3 ± 0.9 | 12.3 ± 0.8 | C=CCCCC [hex-1-ene] + CCCCCC[n+]1ccc2ccccc2c1.N#C[S-]
9 | 50.6 ± 3.5 | 48.1 ± 3.3 | 46.3 ± 3.2 | 44.2 ± 3 | 42.5 ± 2.9 | 40.5 ± 2.8 | 39.1 ± 2.7 | C=CCCCCCCCC [1-decene] + CCCCCC[n+]1ccc2ccccc2c1.N#C[S-]
10 |  |  | 3.08 ± 0.21 | 3.07 ± 0.21 | 3.07 ± 0.21 | 3.06 ± 0.21 | 3.05 ± 0.21 | CCc1ccccc1 [ethylbenzene] + CCCCCC[n+]1ccc2ccccc2c1.N#C[S-]
11 | 15.4 ± 1.1 | 14.2 ± 1 | 13.3 ± 0.9 | 12.4 ± 0.8 | 11.6 ± 0.8 | 10.8 ± 0.7 | 10.2 ± 0.7 | C1CCCCC1 [cyclohexane] + CCCCCC[n+]1ccc2ccccc2c1.N#C[S-]
12 | 15.9 ± 1.1 | 14.9 ± 1 | 14.2 ± 1 | 13.2 ± 0.9 | 12.6 ± 0.9 | 11.9 ± 0.8 | 11.3 ± 0.8 | CCCOCCC [dipropyl ether] + CCCCCC[n+]1ccc2ccccc2c1.N#C[S-]
13 |  |  | 1.46 ± 0.1 | 1.47 ± 0.1 | 1.48 ± 0.1 | 1.48 ± 0.1 | 1.5 ± 0.1 | C1CCOC1 [tetrahydrofuran] + CCCCCC[n+]1ccc2ccccc2c1.N#C[S-]
14 |  |  | 0.6 ± 0.042 | 0.59 ± 0.042 | 0.581 ± 0.041 | 0.574 ± 0.041 | 0.566 ± 0.041 | CCO [ethanol] + CCCCCC[n+]1ccc2ccccc2c1.N#C[S-]
15 | 53 ± 3.6 | 47 ± 3.2 | 42.5 ± 2.9 | 38 ± 2.6 | 35.2 ± 2.4 | 32 ± 2.2 | 29.1 ± 2 | CCCCCCC [heptane] + CCCCCC[n+]1ccc2ccccc2c1.N#C[S-]
16 | 91.5 ± 6.3 | 72.2 ± 4.9 | 57.2 ± 3.9 | 45.5 ± 3.1 | 37.9 ± 2.6 | 31.2 ± 2.1 | 25.6 ± 1.8 | CCC(C)(C)C [2,2-dimethylbutane] + CCCCCC[n+]1ccc2ccccc2c1.N#C[S-]
17 | 8.61 ± 0.59 | 8.13 ± 0.55 | 7.65 ± 0.52 | 7.18 ± 0.49 | 6.99 ± 0.48 | 6.61 ± 0.45 | 6.28 ± 0.43 | COC(C)(C)C [2-methoxy-2-methylpropane] + CCCCCC[n+]1ccc2ccccc2c1.N#C[S-]
18 | 52.3 ± 3.6 | 43.4 ± 3 | 37.8 ± 2.6 | 31.9 ± 2.2 | 27.9 ± 1.9 | 24.7 ± 1.7 | 21.5 ± 1.5 | CCC(C)CC [3-methylpentane] + CCCCCC[n+]1ccc2ccccc2c1.N#C[S-]
19 | 30.2 ± 2.1 | 28.5 ± 1.9 | 27.1 ± 1.9 | 25.6 ± 1.8 | 24.4 ± 1.7 | 23.2 ± 1.6 | 22.2 ± 1.5 | C=CCCCCCC [oct-1-ene] + CCCCCC[n+]1ccc2ccccc2c1.N#C[S-]
20 | 23.7 ± 1.6 | 21.2 ± 1.4 | 20.5 ± 1.4 | 17.6 ± 1.2 | 16.5 ± 1.1 | 15.7 ± 1.1 | 14.1 ± 1 | CC(C)OC(C)C [diisopropyl ether] + CCCCCC[n+]1ccc2ccccc2c1.N#C[S-]
21 |  |  | 1.23 ± 0.08 | 1.25 ± 0.08 | 1.27 ± 0.08 | 1.28 ± 0.08 | 1.31 ± 0.09 | C1COCCO1 [1,4-dioxane] + CCCCCC[n+]1ccc2ccccc2c1.N#C[S-]
22 | 79.7 ± 5.5 | 73.2 ± 5 | 68.2 ± 4.7 | 62.5 ± 4.3 | 59 ± 4 | 54.5 ± 3.7 | 51.3 ± 3.5 | CCCCCCCCC [nonane] + CCCCCC[n+]1ccc2ccccc2c1.N#C[S-]
23 |  |  | 2.1 ± 0.14 | 2.11 ± 0.14 | 2.12 ± 0.14 | 2.12 ± 0.14 | 2.13 ± 0.14 | CCCC(C)=O [pentan-2-one] + CCCCCC[n+]1ccc2ccccc2c1.N#C[S-]
24 |  |  | 1.47 ± 0.1 | 1.48 ± 0.1 | 1.48 ± 0.1 | 1.48 ± 0.1 | 1.49 ± 0.1 | c1ccccc1 [benzene] + CCCCCC[n+]1ccc2ccccc2c1.N#C[S-]
25 | 9.8 ± 0.67 | 9.34 ± 0.64 | 9.01 ± 0.61 | 8.58 ± 0.59 | 8.36 ± 0.57 | 8.13 ± 0.55 | 7.85 ± 0.54 | CCC(C)(C)OC [2-methoxy-2-methylbutane] + CCCCCC[n+]1ccc2ccccc2c1.N#C[S-]
26 | 17 ± 1.2 | 15.8 ± 1.1 | 14.5 ± 1 | 13.4 ± 0.9 | 12.6 ± 0.9 | 11.9 ± 0.8 | 11.3 ± 0.8 | C1CCCCCC1 [cycloheptane] + CCCCCC[n+]1ccc2ccccc2c1.N#C[S-]
27 | 96.5 ± 6.6 | 79.7 ± 5.5 | 68.6 ± 4.7 | 57.7 ± 4 | 50.8 ± 3.5 | 44.5 ± 3 | 39.1 ± 2.7 | CC(C)CC(C)(C)C [2,2,4-trimethylpentane] + CCCCCC[n+]1ccc2ccccc2c1.N#C[S-]
28 |  |  | 0.401 ± 0.034 | 0.406 ± 0.034 | 0.41 ± 0.03 | 0.399 ± 0.034 | 0.418 ± 0.035 | O [water] + CCCCCC[n+]1ccc2ccccc2c1.N#C[S-]
29 | 2.79 ± 0.19 | 2.85 ± 0.19 | 2.91 ± 0.2 | 2.97 ± 0.2 | 3.03 ± 0.21 | 3.07 ± 0.21 | 3.14 ± 0.21 | C#CCCC [1-pentyne] + CCCCCC[n+]1ccc2ccccc2c1.N#C[S-]

Row | SMILES | activity coefficient (308.15 K) | activity coefficient (318.15 K) | activity coefficient (328.15 K) | activity coefficient (338.15 K) | activity coefficient (348.15 K) | activity coefficient (358.15 K) | activity coefficient (368.15 K)
30 | CCC[N+](=O)[O-] [1-nitropropane] + CCCCCC[n+]1ccc2ccccc2c1.N#C[S-] |  |  | 1.39 ± 0.09 | 1.38 ± 0.09 | 1.37 ± 0.09 | 1.37 ± 0.09 | 1.35 ± 0.09
31 | CCOCC [diethyl ether] + CCCCCC[n+]1ccc2ccccc2c1.N#C[S-] | 7.48 ± 0.51 | 7.07 ± 0.48 | 6.69 ± 0.46 | 6.34 ± 0.43 | 6.15 ± 0.42 | 5.91 ± 0.4 | 5.66 ± 0.39
32 | Cc1ccc(C)cc1 [1,4-dimethylbenzene] + CCCCCC[n+]1ccc2ccccc2c1.N#C[S-] |  |  | 2.82 ± 0.19 | 2.85 ± 0.19 | 2.88 ± 0.2 | 2.9 ± 0.2 | 2.94 ± 0.2
33 | Cc1cccc(C)c1 [1,3-dimethylbenzene] + CCCCCC[n+]1ccc2ccccc2c1.N#C[S-] |  |  | 2.9 ± 0.2 | 2.93 ± 0.2 | 2.96 ± 0.2 | 2.98 ± 0.2 | 3.01 ± 0.2
34 | CC(C)=O [acetone] + CCCCCC[n+]1ccc2ccccc2c1.N#C[S-] |  |  | 1.33 ± 0.09 | 1.31 ± 0.09 | 1.3 ± 0.08 | 1.3 ± 0.08 | 1.28 ± 0.08
35 | c1ccncc1 [pyridine] + CCCCCC[n+]1ccc2ccccc2c1.N#C[S-] |  |  | 0.703 ± 0.047 | 0.713 ± 0.048 | 0.722 ± 0.048 | 0.729 ± 0.048 | 0.745 ± 0.049
